Experimental data reported in US4698350A, “1-ethyl-6-fluoro-1,4-dihydro- 7-(2,6-dimethyl-4-pyridinyl)-4-oxo-3-quinolinecarboxylic acid and antibacterial use thereof” (Sterling Drug Inc., priority 1984, dated 1987).
Values after ≈ are worked out from the molar mass of the structure shown. Where a name gives a salt, the structure may show the parent alone. Read-outs that look alike come from different tables or passages of the source.

Experiments:
[1] = tested on: Eikenella corrodens; assay: Agar dilution MIC, anaerobic microorganisms; format: cell-based; conditions: 48 h, read-out: MIC
Experimental: (§1) 1. Maintenance. Prior to use, all strains were maintained in the lyophilized state. During the study, cultures were examined on blood agar basal medium supplemented with 5.0% (v/v) defibrinated rabbit blood. Culture transfer was accomplished weekly with all cultures being incubated in an anaerobic atmosphere (GasPak jar; BBL).
(§2) 2. Agar Medium. The basal test medium consisted of trypticase soy agar (40 g), yeast extract (1 g), glucose (2 g) and 960 ml of distilled water pH 7.2. [Mashimo et al., J. Clin. Micro. 17, 187-191 (1983)]. Subsequent to sterilization and cooling to 50° C., the medium was supplemented with 4% (v/v) defibrinated rabbit blood and 0.5 μg/ml menadione (Vitamin K3) The agent under evaluation was also added at this time to the concentration desired. Subsequent to pouring of the plates, they were permitted to dry at 4° C. for 24 hr.
(§3) 3. Determination of Agent MIC. The minimal inhibitory concentration (MIC) of the various test agents was determined using an agar dilution technique. Agents and appropriate reference compounds were added to achieve a series of concentrations ranging between 32 μg/ml and 0.007 μg/ml. The inocula were prepared from 96-hr. cultures grown on the maintenance medium. Subsequent to a purity evaluation, colonies were removed and suspended in trypticase soy broth supplemented with 5 μg/ml menadione and 2% lysed rabbit blood filtrate to achieve an OD650 of 0.1 (this corresponded to approximately 10^8 cells/ml). Cultures were inoculated aerobically on the modified trypticase soy blood agar plates by use of a Steer's replicator (which delivers about 10^5 cells per spot). The plates were allowed to dry for a time not exceeding 30 min. and then incubated at 37° C. under an atmosphere of […], 10% H2 and 5% CO2 maintained in an anaerobic chamber (Coy Manufacturing Co.) for 48 hr. The MIC was defined as the lowest concentration completely inhibiting growth.
(§4) Tetracycline stock solutions (1 mg/ml) were made subsequent to dissolution in water. Stock solutions (1 mg/ml) of the remaining test compounds were made subsequent to dissolution in 1/10 N NaOH.

[2] = tested on: Capnocytophaga suptigena; assay: Agar dilution MIC, anaerobic microorganisms; format: cell-based; conditions: 48 h; Capnocytophaga suptigena; read-out: MIC
Experimental: as §1, §2, §3, §4

[3] = tested on: B. fragilis; assay: Agar dilution MIC, anaerobic microorganisms; format: cell-based; conditions: Bacteroides fragilis, 48 h; B. fragilis; read-out: MIC
Experimental: as §1, §2, §3, §4

[4] = tested on: B. gingivalis; assay: Agar dilution MIC, anaerobic microorganisms; format: cell-based; conditions: Porphyromonas gingivalis, 48 h; B. gingivalis; read-out: MIC
Experimental: as §1, §2, §3, §4

[5] = tested on: Gram-positive cocci; assay: In vitro antibacterial activity; format: cell-based, S. aureus, S. epidermidis and Streptococcus species
Experimental: (§5) Win 52,522 and Win 35,439 were solubilized in 0.1 ml of 0.5 N NaOH/mg of compound and diluted in sterile distilled water to 160 mcg/ml. Vancomycin and methicillin were solubilized in sterile distilled water to 1250 mcg/ml of base compound. The stock solutions were sterilized by filtration through membrane filters with a 0.45 μm pore size.
(§6) The bacterial cultures listed in Table I (hereinbelow) were grown overnight at 37° C. in MHB for all cultures except the Streptococcus strains. These were grown in BHI+10% NHS. The overnight broth cultures were adjusted to an optical density of 0.10 (650 nm, B L Spectronic 20) in sterile distilled water and subsequently diluted to 6.7×10^6 cells/ml in MHB or BHI+1% NHS.
Serial two-fold dilutions of the compound solutions were prepared in MHB (or in BHI+1% NHS for tests with Streptococci) and dispensed into 96-well microtiter trays in a volume of 0.1 ml/well using a Sandy Springs (Bellco Glass Co.) dispenser. The trays were then inoculated with 0.0015 ml of a suspension containing 6.7×10^6 cells/ml of the appropriate inoculum using a MIC-2000 inoculator (Dynatech Corp.) resulting in a final inoculum of approximately 1×10^4 cells/well or 1×10^5 cells/ml. The trays were incubated at 37° C. for 18-20 hours and the minimal inhibitory concentration (MIC), defined as the lowest concentration of compound to inhibit visible bacterial growth, was recorded. […]

[6] = tested on: P. aeruginosa; assay: In vitro MIC/MBC summary (Table II); format: cell-based, Pseudomonas aeruginosa
Experimental: as §5, §6
(§7) Serial two-fold dilutions of the compound solutions were prepared in MHB (or in BHI+1% NHS for tests with Streptococci) and dispensed into 96-well microtiter trays in a volume of 0.1 ml/well using a Sandy Springs (Bellco Glass Co.) dispenser. The trays were then inoculated with 0.0015 ml of a suspension containing 6.7×10^6 cells/ml of the appropriate inoculum using a MIC-2000 inoculator (Dynatech Corp.) resulting in a final inoculum of approximately 1×10^4 cells/well or 1×10^5 cells/ml. The trays were incubated at 37° C. for 18-20 hours and the minimal inhibitory concentration (MIC), defined as the lowest concentration of compound to inhibit visible bacterial growth, was recorded.
(§8) After the MIC values were recorded, the contents in the microtiter trays were thoroughly mixed on a Bellco Mini-orbital Shaker (Bellco Glass Co.) for 3 min. at a setting of 8. A portion (0.0015 ml) from each well was then transferred via an MIC-2000 inoculator to plates containing MHA or BHI agar+10% NHS. The plates were incubated at 37° C. for 18-20 hrs. The minimal bactericidal concentration (MBC), defined as the lowest concentration of compound that prevented the formation of a recognizable colony on the agar surface, was recorded.

[7] = tested on: S. pyogenes C203; assay: In vitro antibacterial MIC/MBC test; format: cell-based; conditions: Streptococcus pyogenes
Procedure, shortened: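 Overnight cultures were adjusted by OD650 and diluted, then inoculated into serially diluted compound in MHB or, for streptococci, BHI+1% NHS at about 1×10^5 cells/ml. After 18-20 hours at 37° C. the MIC was read visually, and wells were replated on agar to obtain the MBC.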

[8] = tested on: Escherichia coli Vogel; assay: Mouse protection test, E. coli Vogel infection; format: in vivo, ICR mice; Escherichia coli; conditions: for ED50: Escherichia coli, 168 h, once one-half hour postinfection, read-out: Protective Dose 50% (95% Confidence Limits); for times more efficacious than Win 35,439: E. coli infection
Experimental: ICR mice, female, 18-20 grams each.
Solutions of Win 52,522 and Win 35,439 were prepared by dissolving the appropriate weight of drug in 0.3 to 0.4 ml of 1 N NaOH and then bringing the solutions to the desired volume with distilled water. Methicillin and vancomycin were dissolved directly in distilled water.
The culture was inoculated into 10 ml of Brain Heart Infusion broth and grown statically for 16 hours at 37° C. Fresh tubes of the same broth were inoculated with 0.1 ml portions of the 16 hour broth culture and incubation continued for 5 hours at 37° C. The 5 hour broth culture was finally diluted with saline to provide the test inoculum containing 4.0×10^7 cells/ml.
Mice were inoculated intraperitoneally with 0.5 ml of the bacterial test inoculum.
Mice were medicated subcutaneously or orally once (0.5 ml) one-half hour postinfection.
Deaths were recorded daily for seven days for all tests. Fifty percent protective dose values (PD50's) were calculated using probit analysis [SAS Users Guide: Statistics, 1982 Edition, SAS Institute, Inc., Cary, N.C.].

[9] = tested on: E. coli; assay: In vitro MIC/MBC summary (Table II); format: cell-based; conditions: Escherichia coli, 5 E. coli strains
Experimental: as §5, §6, §7, §8

[10] = Pseudomonas aeruginosa, 5 P. aeruginosa strains
[11] = Pseudomonas aeruginosa, 5 P. aeruginosa strains, read-out: MBC 50%
[12] = Pseudomonas aeruginosa, 5 P. aeruginosa strains, read-out: MBC 90%
[13] = S. pyogenes C203, read-out: MBC
[14] = S. pyogenes C203, read-out: MIC

| SMILES | MIC [1] | MIC [2] | MIC [3] | MIC [4] | MIC50 [6, 10] | MIC90 [6, 10] | MBC [6, 11] | MBC [6, 12] | MBC [7, 13] | MIC [7, 14] | Survivors/Total ([8]; 3.13 mg/kg po) | Survivors/Total ([8]; 3.13 mg/kg sc) | Survivors/Total ([8]; 6.25 mg/kg po) | Survivors/Total ([8]; 6.25 mg/kg sc) | Survivors/Total ([8]; 12.5 mg/kg po) | Survivors/Total ([8]; 12.5 mg/kg sc) | Survivors/Total ([8]; 25 mg/kg po) | Survivors/Total ([8]; 25 mg/kg sc) | ED50 ([8]; po, po) | ED50 ([8]; sc, sc) | other results |
| --- | --- | --- | --- | --- | --- | --- | --- | --- | --- | --- | --- | --- | --- | --- | --- | --- | --- | --- | --- | --- | --- |
| CCn1cc(C(=O)O)c(=O)c2cc(F)c(-c3cc(C)nc(C)c3)cc21 [Win 52,522, 1-ethyl-6-fluoro-1,4-dihydro-7-(2,6-dimethyl-4-pyridinyl)-4-oxo-3-quinolinecarboxylic acid] | 0.5 µg/mL (≈ 1.47 µM) | 0.06 µg/mL (≈ 0.176 µM) | 4 µg/mL (≈ 11.8 µM) | 2 µg/mL (≈ 5.88 µM) | 16 µg/mL (≈ 47 µM) | 16 µg/mL (≈ 47 µM) | 16 µg/mL (≈ 47 µM) | 16 µg/mL (≈ 47 µM) | 0.5 µg/mL (≈ 1.47 µM) | 0.5 µg/mL (≈ 1.47 µM) | 0/10 | 0/10 | 2/10 | 8/10 | 9/10 | 10/10 | 10/10 | 10/10 | 8.2 mg/kg | ~5.2 mg/kg | times more potent in vitro than Win 35,439 ([5]; several Gram-positive cocci): 2-8 times; MIC [6, 10]: 4 to 16 µg/mL (≈ 11.8 to 47 µM); MBC ([6]; Pseudomonas aeruginosa, 5 P. aeruginosa strains, read-out: MBC Range): 16 µg/mL (≈ 47 µM); potency relative to Win 35,439 ([6]; in vitro, P. aeruginosa): similarly potent; Survivors/Total ([8]; 1.56 mg/kg po): 0/10; Survivors/Total ([8]; 1.56 mg/kg sc): 0/10; times more efficacious than Win 35,439 ([8]; p.o.): 2.0 times; times more efficacious than Win 35,439 ([8]; s.c.): 2.6 times; PD50 values relative to those of Win 35,439 ([8]; subcutaneous and oral): approximately one-half; MIC [9]: 0.25 to 0.5 µg/mL (≈ 0.735 to 1.47 µM); MIC50 [9]: 0.25 µg/mL (≈ 0.735 µM); MIC90 [9]: 0.25 µg/mL (≈ 0.735 µM); MBC ([9]; read-out: MBC 50%): 0.25 µg/mL (≈ 0.735 µM); MBC ([9]; read-out: MBC Range): 0.25 to 0.5 µg/mL (≈ 0.735 to 1.47 µM) |
| COc1cccc(OC)c1C(=O)N[C@@H]1C(=O)N2[C@@H]1SC(C)(C)[C@@H]2C(=O)O [Methicillin, 6-(2,6-dimethoxybenzamido)penicillanic acid sodium salt] |  |  |  |  |  |  |  |  | 0.125 µg/mL | 0.125 µg/mL |  |  |  |  |  |  |  |  |  |  | bactericidal / bacteriostatic ([5]; Gram-positive cocci): bactericidal |
| CCn1cc(C(=O)O)c(=O)c2ccc(-c3cc(C)nc(C)c3)cc21 [Win 35,439, 1-ethyl-1,4-dihydro-7-(2,6-dimethyl-4-pyridinyl)-4-oxo-3-quinolinecarboxylic acid] | 2 µg/mL (≈ 6.2 µM) | 0.5 µg/mL (≈ 1.55 µM) | > 10 µg/mL | > 10 µg/mL | 16 µg/mL (≈ 49.6 µM) | 16 µg/mL (≈ 49.6 µM) | > 16 µg/mL | > 16 µg/mL | > 16 µg/mL | 4 µg/mL (≈ 12.4 µM) | 0/10 | 1/10 | 0/10 | 0/10 | 2/10 | 4/10 | 9/10 | 10/10 | 16.5 mg/kg | 13.5 mg/kg | MIC [9]: 0.5 to 2 µg/mL (≈ 1.55 to 6.2 µM); MIC50 [9]: 0.5 µg/mL (≈ 1.55 µM); MIC90 [9]: 2 µg/mL (≈ 6.2 µM); MBC ([9]; read-out: MBC 50%): 0.5 µg/mL (≈ 1.55 µM); MBC ([9]; read-out: MBC Range): 0.5 to 2 µg/mL (≈ 1.55 to 6.2 µM) |
| CN[C@H](CC(C)C)C(=O)N[C@H]1C(=O)N[C@@H](CC(N)=O)C(=O)N[C@H]2C(=O)N[C@H]3C(=O)N[C@H](C(=O)N[C@H](C(=O)O)c4cc(O)cc(O)c4-c4cc3ccc4O)[C@H](O)c3ccc(c(Cl)c3)Oc3cc2cc(c3O[C@@H]2O[C@H](CO)[C@@H](O)[C@H](O)[C@H]2O[C@H]2C[C@](C)(N)[C@H](O)[C@H](C)O2)Oc2ccc(cc2Cl)[C@H]1O [Vancomycin] |  |  |  |  |  |  |  |  |  |  |  |  |  |  |  |  |  |  |  |  | MBC ([7]; C203): 16 µg/mL (≈ 11 µM); MIC ([7]; C203): 16 µg/mL (≈ 11 µM) |
